Source: patent publication US20250163032A1, “NOVEL MOLECULES AS INHIBITORS OF DNA DAMAGE REPAIR PATHWAY” (VRise Therapeutics, Inc., priority 2023, published 2025)

Molecular target: USP1/UAF1 (Homo sapiens, UniProt O94782)
Assay: USP1/UAF 1 assay (ubiquitin-rhodamine110 fluorometric deubiquitinase assay)
Type: biochemical
Details: 1 nM USP1/UAF1, 150 nM Ub-Rho; read-out: Biochemical assay IC50
Procedure: Test-1: USP1/UAF 1 Assay:
Deubiquitinase activity of USP1/UAF1 was monitored in a fluorometric assay using ubiquitin-rhodamine110 as substrate. Briefly, enzymatic reactions were conducted in an assay buffer composed of 50 mM HEPES, pH 7.8, 0.5 mM EDTA, 100 mM NaCl, 1 mM TCEP, 0.1 mg/mL BSA, and 0.01% Tween-20 that contained 1 nM USP1/UAF1. Compounds were tested at desired concentrations. The plates were incubated for 15 min to attain equilibrium, and then the enzymatic reaction was initiated by dispensing 150 nM Ub-Rho solution. Fluorescence measurement was performed in a high throughput CCD imager, where kinetic measurements of rhodamine fluorescence were acquired using a 480 nm excitation/540 nm emission filter set. The change in fluorescence intensity over a 5-minute reaction period (typically associated with less than 10% substrate conversion) was normalized against no-inhibitor and no-enzyme controls and the resulting percent inhibition data were fitted to a sigmoidal dose response using a four-parameter Hill equation. Data was be analysed and percent inhibition and/or IC50 for each test compound is calculated accordingly.

Sequence of USP1/UAF1 (O94782 whole entry): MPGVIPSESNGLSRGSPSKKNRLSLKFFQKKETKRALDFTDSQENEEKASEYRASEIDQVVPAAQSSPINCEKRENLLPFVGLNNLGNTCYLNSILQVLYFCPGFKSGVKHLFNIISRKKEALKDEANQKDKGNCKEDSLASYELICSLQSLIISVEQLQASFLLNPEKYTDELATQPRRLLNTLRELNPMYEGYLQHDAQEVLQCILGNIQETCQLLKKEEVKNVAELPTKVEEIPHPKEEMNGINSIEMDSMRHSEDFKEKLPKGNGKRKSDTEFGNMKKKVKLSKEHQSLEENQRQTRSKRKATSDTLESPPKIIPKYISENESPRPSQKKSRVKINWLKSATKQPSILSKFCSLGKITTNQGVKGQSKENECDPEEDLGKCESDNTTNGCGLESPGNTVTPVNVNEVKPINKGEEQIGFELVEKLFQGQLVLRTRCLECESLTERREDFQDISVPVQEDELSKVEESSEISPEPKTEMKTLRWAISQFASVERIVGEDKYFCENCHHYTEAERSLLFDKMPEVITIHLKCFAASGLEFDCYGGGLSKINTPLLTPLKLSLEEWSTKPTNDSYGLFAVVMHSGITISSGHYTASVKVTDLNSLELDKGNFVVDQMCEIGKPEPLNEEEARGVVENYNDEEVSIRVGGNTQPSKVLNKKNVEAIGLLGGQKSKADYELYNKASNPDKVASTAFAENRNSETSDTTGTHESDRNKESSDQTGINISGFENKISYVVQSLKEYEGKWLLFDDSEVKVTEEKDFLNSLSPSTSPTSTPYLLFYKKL
Sequence of USP1/UAF1 (Q8TAF3 whole entry partner): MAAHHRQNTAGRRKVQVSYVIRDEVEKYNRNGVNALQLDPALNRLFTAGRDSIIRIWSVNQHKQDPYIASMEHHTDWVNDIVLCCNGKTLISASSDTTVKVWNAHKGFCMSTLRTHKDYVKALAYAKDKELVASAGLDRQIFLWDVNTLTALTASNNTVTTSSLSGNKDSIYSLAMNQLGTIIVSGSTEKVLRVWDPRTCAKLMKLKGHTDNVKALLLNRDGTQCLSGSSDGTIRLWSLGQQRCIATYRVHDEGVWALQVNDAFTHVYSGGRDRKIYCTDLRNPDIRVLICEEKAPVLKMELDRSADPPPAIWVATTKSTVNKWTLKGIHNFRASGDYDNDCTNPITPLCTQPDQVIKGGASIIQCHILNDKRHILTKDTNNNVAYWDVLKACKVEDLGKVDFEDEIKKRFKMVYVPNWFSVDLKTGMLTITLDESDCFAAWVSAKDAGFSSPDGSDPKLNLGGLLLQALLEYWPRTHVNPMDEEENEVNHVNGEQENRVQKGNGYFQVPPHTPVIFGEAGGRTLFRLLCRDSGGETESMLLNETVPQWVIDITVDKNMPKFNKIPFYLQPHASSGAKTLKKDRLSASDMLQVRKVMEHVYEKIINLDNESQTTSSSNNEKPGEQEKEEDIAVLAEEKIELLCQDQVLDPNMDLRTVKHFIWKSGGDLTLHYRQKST

Row | IC50 [nM] | SMILES
1 | < 50 | CC(C)c1ccccc1-c1nc(NCc2ccc(-c3nc(C(F)(F)F)cn3C)cc2)c2[nH]cnc2n1 [Example 15, 2-(2-isopropylphenyl)-N-(4-(1-methyl-4-(trifluoromethyl)-1H-imidazo-2-yl)benzyl)-7H-purin-6-amine]
2 | 100 to 1000 | CC(C)c1ccccc1-c1cc2nccn2c(NCc2ccc(-c3nc(C(F)(F)F)cn3C)cc2)n1 [Example 7, 7-(2-isopropylphenyl)-N-(4-(1-methyl-4-(trifluoromethyl)-1H-imidazol-2-yl)benzyl)imidazo[1,2-c]pyrimidin-5-amine]

Same assay, conditions: read-out: Biochemical assay % inhibition @1 μM

Row | inhibition at 1 µM [%] | SMILES
3 | 50 to 75 | COc1cccc(-c2nc(NCc3ccc(-c4nc(C(F)(F)F)cn4C)cc3)c3[nH]cnc3n2)c1F [Example 48, 2-(2-fluoro-3-methoxyphenyl)-N-(4-(1-methyl-4-(trifluoromethyl)-1H-imidazol-2-yl)benzyl)-7H-purin-6-amine]
4 | 50 to 75 | Cn1cc(C(F)(F)F)nc1-c1ccc(CNc2nc(-c3ccc(C(F)(F)F)cc3)nc3c2CCC3)cc1 [Example 71, N-(4-(1-methyl-4-(trifluoromethyl)-1H-imidazol-2-yl)benzyl)-2-(4-(trifluoromethyl)phenyl)-6,7-dihydro-5H-cyclopenta[d]pyrimidin-4-amine]
5 | 50 to 75 | COc1ccc(-c2nc3c(c(NCc4ccc(-c5nc(C(F)(F)F)cn5C)cc4)n2)CCC3)cc1OC [Example 69, 2-(3,4-dimethoxyphenyl)-N-(4-(1-methyl-4-(trifluoromethyl)-1H-imidazol-2-yl)benzyl)-6,7-dihydro-5H-cyclopenta[d]pyrimidin-4-amine]
6 | 50 to 75 | Cn1cc(C(F)(F)F)nc1-c1ccc(CNc2nc(-c3cc(Cl)cc(Cl)c3)nc3nc[nH]c23)cc1 [Example 39, 2-(3,5-dichlorophenyl)-N-(4-(1-methyl-4-(trifluoromethyl)-1H-imidazol-2-yl)benzyl)-7H-purin-6-amine]
7 | 50 to 75 | Cc1cc(C)cc(-c2nc(NCc3ccc(-c4nc(C(F)(F)F)cn4C)cc3)c3[nH]cnc3n2)c1 [Example 50, 2-(3,5-dimethylphenyl)-N-(4-(1-methyl-4-(trifluoromethyl)-1H-imidazol-2-yl)benzyl)-7H-purin-6-amine]
8 | 50 to 75 | Cn1cc(C(F)(F)F)nc1-c1ccc(CNc2nc(-c3cccc(F)c3C(F)(F)F)nc3nc[nH]c23)cc1 [Example 54, 2-(3-fluoro-2-(trifluoromethyl)phenyl)-N-(4-(1-methyl-4-(trifluoromethyl)-1H-imidazol-2-yl)benzyl)-7H-purin-6-amine]
9 | 50 to 75 | Cn1cc(C(F)(F)F)nc1-c1ccc(CNc2nc(-c3ccc(C(F)(F)F)cc3)nc3nc[nH]c23)cc1 [Example 57, N-(4-(1-methyl-4-(trifluoromethyl)-1H-imidazol-2-yl)benzyl)-2-(4-(trifluoromethyl)phenyl)-7H-purin-6-amine]
10 | 50 to 75 | Cn1cc(C(F)(F)F)nc1-c1ccc(CNc2nc(-c3cccc(OC(F)(F)F)c3)nc3nc[nH]c23)cc1 [Example 46, N-(4-(1-methyl-4-(trifluoromethyl)-1H-imidazol-2-yl)benzyl)-2-(3-(trifluoromethoxy)phenyl)-7H-purin-6-amine]
11 | 50 to 75 | COc1ccc(-c2nc(NCc3ccc(-c4nc(C(F)(F)F)cn4C)cc3)c3[nH]cnc3n2)c(OC)c1 [Example 53, 2-(2,4-dimethoxyphenyl)-N-(4-(1-methyl-4-(trifluoromethyl)-1H-imidazol-2-yl)benzyl)-7H-purin-6-amine]
12 | 50 to 75 | COc1ccc(-c2nc3c(c(NCc4ccc(-c5nc(C(F)(F)F)cn5C)cc4)n2)CCC3)c(OC)n1 [Example 65, 2-(2,6-dimethoxypyridin-3-yl)-N-(4-(1-methyl-4-(trifluoromethyl)-1H-imidazol-2-yl)benzyl)-6,7-dihydro-5H-cyclopenta[d]pyrimidin-4-amine]
13 | 50 to 75 | Cn1cc(C(F)(F)F)nc1-c1ccc(CNc2nc(-c3cc(C(F)(F)F)ccc3F)nc3nc[nH]c23)cc1 [Example 44, 2-(2-fluoro-5-(trifluoromethyl)phenyl)-N-(4-(1-methyl-4-(trifluoromethyl)-1H-imidazol-2-yl)benzyl)-7H-purin-6-amine]
14 | 50 to 75 | Cn1cc(C(F)(F)F)nc1-c1ccc(CNc2nc(-c3ccc(F)c(C#N)c3)nc3nc[nH]c23)cc1 [Example 49, 2-fluoro-5-(6-((4-(1-methyl-4-(trifluoromethyl)-1H-imidazol-2-yl)benzyl)amino)-7H-purin-2-yl)benzonitrile]
15 | 50 to 75 | Cn1cc(C(F)(F)F)nc1-c1ccc(CNc2nc(-c3ccc(F)c(C#N)c3)nc3c2CCC3)cc1 [Example 60, 2-fluoro-5-(4-((4-(1-methyl-4-(trifluoromethyl)-1H-imidazol-2-yl)benzyl)amino)-6,7-dihydro-5H-cyclopenta[d]pyrimidin-2-yl)benzonitrile]
16 | 50 to 75 | COc1cc(-c2nc(NCc3ccc(-c4nc(C(F)(F)F)cn4C)cc3)c3[nH]cnc3n2)ccc1F [Example 52, 2-(4-fluoro-3-methoxyphenyl)-N-(4-(1-methyl-4-(trifluoromethyl)-1H-imidazol-2-yl)benzyl)-7H-purin-6-amine]
17 | 50 to 75 | CC(=O)Nc1cccc(-c2nc3c(c(NCc4ccc(-c5nc(C(F)(F)F)cn5C)cc4)n2)CCC3)c1 [Example 59, N-(3-(4-((4-(1-methyl-4-(trifluoromethyl)-1H-imidazol-2-yl)benzyl)amino)-6,7-dihydro-5H-cyclopenta[d]pyrimidin-2-yl)phenyl)acetamide]
18 | 50 to 75 | Cn1cc(C(F)(F)F)nc1-c1ccc(CNc2nc(-c3cccc(C(N)=O)c3)nc3nc[nH]c23)cc1 [Example 55, 3-(6-((4-(1-methyl-4-(trifluoromethyl)-1H-imidazol-2-yl)benzyl)amino)-7H-purin-2-yl)benzamide]
19 | 50 to 75 | Cn1cc(C(F)(F)F)nc1-c1ccc(CNc2nc(-c3cc(F)cc(F)c3)nc3nc[nH]c23)cc1 [Example 41, 2-(3,5-difluorophenyl)-N-(4-(1-methyl-4-(trifluoromethyl)-1H-imidazol-2-yl)benzyl)-7H-purin-6-amine]
20 | 50 to 75 | Cn1cc(C(F)(F)F)nc1-c1ccc(CNc2nc(-c3cccc(Cl)c3F)nc3c2CCC3)cc1 [Example 67, 2-(3-chloro-2-fluorophenyl)-N-(4-(1-methyl-4-(trifluoromethyl)-1H-imidazol-2-yl)benzyl)-6,7-dihydro-5H-cyclopenta[d]pyrimidin-4-amine]
21 | 50 to 75 | Cn1cc(C(F)(F)F)nc1-c1ccc(CNc2nc(-c3ccc(F)cc3F)nc3nc[nH]c23)cc1 [Example 40, 2-(2,4-difluorophenyl)-N-(4-(1-methyl-4-(trifluoromethyl)-1H-imidazol-2-yl)benzyl)-7H-purin-6-amine]
22 | 50 to 75 | COc1ccc(-c2nc(NCc3ccc(-c4nc(C(F)(F)F)cn4C)cc3)c3[nH]cnc3n2)cc1OC [Example 51, 2-(3,4-dimethoxyphenyl)-N-(4-(1-methyl-4-(trifluoromethyl)-1H-imidazol-2-yl)benzyl)-7H-purin-6-amine]
23 | 50 to 75 | Cn1cc(C(F)(F)F)nc1-c1ccc(CNc2nc(-c3cc(Cl)cc(Cl)c3)nc3c2CCC3)cc1 [Example 73, 2-(3,5-dichlorophenyl)-N-(4-(1-methyl-4-(trifluoromethyl)-1H-imidazol-2-yl)benzyl)-6,7-dihydro-5H-cyclopenta[d]pyrimidin-4-amine]
24 | 50 to 75 | Cn1cc(C(F)(F)F)nc1-c1ccc(CNc2nc(-c3cccc(C(F)(F)F)c3)nc3nc[nH]c23)cc1 [Example 58, N-(4-(1-methyl-4-(trifluoromethyl)-1H-imidazol-2-yl)benzyl)-2-(3-(trifluoromethyl)phenyl)-7H-purin-6-amine]
25 | > 75 | Cn1cc(C(F)(F)F)nc1-c1ccc(CNc2nc(-c3ccccc3C(F)(F)F)nc3c2CCC3)cc1 [Example 70, N-(4-(1-methyl-4-(trifluoromethyl)-1H-imidazol-2-yl)benzyl)-2-(2-(trifluoromethyl)phenyl)-6,7-dihydro-5H-cyclopenta[d]pyrimidin-4-amine]

Same assay, conditions: read-out: Biochemical assay % inhibition @10 μM

Row | inhibition at 10 µM [%] | SMILES
26 | > 75 | COc1cccc(F)c1-c1nc(NCc2ccc(-c3nc(C(F)(F)F)cn3C)cc2)c2[nH]cnc2n1 [Example 30, 2-(2-fluoro-6-methoxyphenyl)-N-(4-(1-methyl-4-(trifluoromethyl)-1H-imidazol-2-yl)benzyl)-7H-purin-6-amine]
27 | > 75 | COc1ncnc(C2CC2)c1-c1nc(NCc2ccc(-c3nc(C(F)(F)F)cn3C)cc2)c2ncn(C)c2n1 [Example 37, 2-(4-cyclopropyl-6-methoxypyrimidin-5-yl)-9-methyl-N-(4-(1-methyl-4-(trifluoromethyl)-1H-imidazol-2-yl)benzyl)-9H-purin-6-amine]
28 | 50 to 75 | Cn1cc(C(F)(F)F)nc1-c1ccc(CNc2nc(N3CCOCC3)nc3nc[nH]c23)cc1 [Example 36, N-(4-(1-methyl-4-(trifluoromethyl)-1H-imidazol-2-yl)benzyl)-2-morpholino-7H-purin-6-amine]
29 | > 75 | COc1ccncc1-c1nc(NCc2ccc(-c3nc(C(F)(F)F)cn3C)cc2)c2[nH]cnc2n1 [Example 34, 2-(4-methoxypyridin-3-yl)-N-(4-(1-methyl-4-(trifluoromethyl)-1H-imidazol-2-yl)benzyl)-7H-purin-6-amine]
